ChEMBL document CHEMBL5696442, “Discovery of type II inhibitors of TGFβ-activated kinase 1 (TAK1) and mitogen-activated protein kinase kinase kinase kinase 2 (MAP4K2)” (J Med Chem, 2015)
Calls of active or inactive are those of the source. The rule behind the calls is not given here.

How the values were obtained:
[1] = target: Serine/threonine-protein kinase 10 (Homo sapiens) (UniProt O94804); assay: Inhibition of LOK Lys1 labeling site in human A-375 cells at 5 uM by KiNativ Profiling analysis relative to control; type: cell-based
[2] = target: Ephrin type-A receptor 3 (Homo sapiens) (UniProt P29320); assay: Inhibition of EPHA3 (unknown origin) at 10 uM by Ambit Kinomescan binding assay relative to control
[3] = target: Activated CDC42 kinase 1 (Homo sapiens) (UniProt Q07912); assay: Inhibition of TNK2 (unknown origin) at 10 uM by Ambit Kinomescan binding assay
[4] = target: T1, Mitogen-activated protein kinase kinase kinase 2 (Homo sapiens) (UniProt Q9Y2U5); assay: Inhibition of MAP3K2 Lys2 labeling site in human A-375 cells at 0.5 uM by KiNativ Profiling analysis relative to control; type: cell-based
T1 sequence (whole entry): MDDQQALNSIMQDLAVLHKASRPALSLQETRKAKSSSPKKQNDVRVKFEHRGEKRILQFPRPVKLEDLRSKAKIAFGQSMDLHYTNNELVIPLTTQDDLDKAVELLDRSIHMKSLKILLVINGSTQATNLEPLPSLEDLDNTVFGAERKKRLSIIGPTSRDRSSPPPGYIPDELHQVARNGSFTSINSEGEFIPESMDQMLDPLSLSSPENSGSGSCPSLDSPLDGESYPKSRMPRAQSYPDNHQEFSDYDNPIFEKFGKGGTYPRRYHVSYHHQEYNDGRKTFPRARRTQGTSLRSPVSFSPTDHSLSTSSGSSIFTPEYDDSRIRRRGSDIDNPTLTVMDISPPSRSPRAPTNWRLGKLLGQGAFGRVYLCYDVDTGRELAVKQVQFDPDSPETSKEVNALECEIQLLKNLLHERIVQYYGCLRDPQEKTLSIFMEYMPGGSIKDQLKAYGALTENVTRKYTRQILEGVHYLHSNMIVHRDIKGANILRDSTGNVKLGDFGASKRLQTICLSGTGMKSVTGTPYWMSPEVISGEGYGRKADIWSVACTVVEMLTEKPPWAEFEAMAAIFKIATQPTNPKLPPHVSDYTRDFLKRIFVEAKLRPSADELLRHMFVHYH

[5] = target: Serine/threonine-protein kinase SIK1 (Homo sapiens) (UniProt P57059); assay: Inhibition of SIK1 K2 labeling site in human Huh-7 cells at 10 uM by KiNativ Profiling analysis relative to control; type: cell-based
[6] = target: TGF-beta receptor type-2 (Homo sapiens) (UniProt P37173); assay: Inhibition of TGFBR2 (unknown origin) at 1 uM by Ambit Kinomescan binding assay relative to control
[7] = target: T2, Acylglycerol kinase, mitochondrial (Homo sapiens) (UniProt Q53H12); assay: Inhibition of AGK ATP labeling site in human A-375 cells at 5 uM by KiNativ Profiling analysis relative to control; type: cell-based
T2 sequence (whole entry): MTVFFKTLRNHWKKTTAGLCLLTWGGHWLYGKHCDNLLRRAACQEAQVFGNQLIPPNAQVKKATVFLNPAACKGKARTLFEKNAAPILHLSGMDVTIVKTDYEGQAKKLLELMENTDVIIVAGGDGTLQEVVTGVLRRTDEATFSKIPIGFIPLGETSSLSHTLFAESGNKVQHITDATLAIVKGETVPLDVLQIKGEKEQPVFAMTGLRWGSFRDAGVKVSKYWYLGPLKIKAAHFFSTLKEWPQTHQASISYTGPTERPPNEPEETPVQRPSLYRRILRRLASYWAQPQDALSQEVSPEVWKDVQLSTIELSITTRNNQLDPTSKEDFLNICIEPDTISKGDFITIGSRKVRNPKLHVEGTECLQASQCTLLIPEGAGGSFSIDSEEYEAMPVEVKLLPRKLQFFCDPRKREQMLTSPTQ

[8] = target: Phosphatidylinositol 4,5-bisphosphate 3-kinase catalytic subunit beta isoform (Homo sapiens) (UniProt P42338); assay: Inhibition of PIK3CB ATP labeling site in human A-375 cells at 5 uM by KiNativ Profiling analysis relative to control; type: cell-based
[9] = target: Phosphatidylinositol 4-kinase beta (Homo sapiens) (UniProt Q9UBF8); assay: Inhibition of PI4KB ATP labeling site harbouring VPHTQAVVLNSKDKAPYLIYVEVLECENFDTTSVPAR in human A-375 cells at 0.5 uM by KiNativ Profiling analysis relative to control; type: cell-based
[10] = target: Vascular endothelial growth factor receptor 3 (Homo sapiens) (UniProt P35916); assay: Inhibition of FLT4 (unknown origin) at 1 uM by Ambit Kinomescan binding assay relative to control; values are per cent of control
[11] = target: Serine/threonine-protein kinase OSR1 (Homo sapiens) (UniProt O95747); assay: Inhibition of OSR1 (unknown origin) at 1 uM by Ambit Kinomescan binding assay relative to control; values are per cent of control
[12] = target: Serine/threonine-protein kinase pim-1 (Homo sapiens) (UniProt P11309); assay: Inhibition of PIM1 (unknown origin) at 1 uM by Ambit Kinomescan binding assay relative to control; values are per cent of control
[13] = target: Ribosomal protein S6 kinase beta-2 (Homo sapiens) (UniProt Q9UBS0); assay: Inhibition of p70S6Kb ATP labeling site in human Huh-7 cell lysate at 1 uM by KiNativ Profiling analysis relative to control; type: subcellular
[14] = target: T3, Serine/threonine-protein kinase TBK1 (Homo sapiens) (UniProt Q9UHD2); assay: Inhibition of TBK1 Lys1 labeling site in human Huh-7 cells at 1 uM by KiNativ Profiling analysis relative to control; type: cell-based
T3 sequence (whole entry): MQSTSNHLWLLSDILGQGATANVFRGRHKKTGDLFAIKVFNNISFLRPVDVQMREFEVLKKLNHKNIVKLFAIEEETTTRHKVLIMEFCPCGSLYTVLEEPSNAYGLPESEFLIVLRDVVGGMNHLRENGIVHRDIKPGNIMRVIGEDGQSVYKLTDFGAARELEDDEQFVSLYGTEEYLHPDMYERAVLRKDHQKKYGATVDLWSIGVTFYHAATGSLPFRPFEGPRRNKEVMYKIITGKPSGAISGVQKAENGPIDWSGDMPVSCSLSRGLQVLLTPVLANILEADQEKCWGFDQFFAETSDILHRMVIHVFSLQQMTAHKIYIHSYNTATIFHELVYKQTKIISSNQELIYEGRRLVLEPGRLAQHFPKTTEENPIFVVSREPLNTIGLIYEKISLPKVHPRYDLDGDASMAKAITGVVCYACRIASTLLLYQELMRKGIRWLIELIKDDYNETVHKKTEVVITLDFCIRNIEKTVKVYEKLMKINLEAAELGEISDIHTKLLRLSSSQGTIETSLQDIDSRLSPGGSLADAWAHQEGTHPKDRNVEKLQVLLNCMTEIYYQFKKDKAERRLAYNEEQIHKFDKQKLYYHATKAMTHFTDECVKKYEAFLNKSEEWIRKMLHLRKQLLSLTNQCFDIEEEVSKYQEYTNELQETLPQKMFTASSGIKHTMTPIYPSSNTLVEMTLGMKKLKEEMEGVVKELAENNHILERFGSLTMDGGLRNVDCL

Serine/threonine-protein kinase pim-1 (Homo sapiens), sequence (P11309 whole entry, looked up): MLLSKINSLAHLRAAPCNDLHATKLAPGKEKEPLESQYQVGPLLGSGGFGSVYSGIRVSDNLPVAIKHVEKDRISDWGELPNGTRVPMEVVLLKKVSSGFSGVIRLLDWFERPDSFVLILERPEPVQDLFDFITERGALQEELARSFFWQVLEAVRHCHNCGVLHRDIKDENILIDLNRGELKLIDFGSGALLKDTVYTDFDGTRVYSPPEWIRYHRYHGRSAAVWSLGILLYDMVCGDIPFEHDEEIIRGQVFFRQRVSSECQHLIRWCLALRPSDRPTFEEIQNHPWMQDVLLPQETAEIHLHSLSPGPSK
Ephrin type-A receptor 3 (Homo sapiens), sequence (P29320 whole entry): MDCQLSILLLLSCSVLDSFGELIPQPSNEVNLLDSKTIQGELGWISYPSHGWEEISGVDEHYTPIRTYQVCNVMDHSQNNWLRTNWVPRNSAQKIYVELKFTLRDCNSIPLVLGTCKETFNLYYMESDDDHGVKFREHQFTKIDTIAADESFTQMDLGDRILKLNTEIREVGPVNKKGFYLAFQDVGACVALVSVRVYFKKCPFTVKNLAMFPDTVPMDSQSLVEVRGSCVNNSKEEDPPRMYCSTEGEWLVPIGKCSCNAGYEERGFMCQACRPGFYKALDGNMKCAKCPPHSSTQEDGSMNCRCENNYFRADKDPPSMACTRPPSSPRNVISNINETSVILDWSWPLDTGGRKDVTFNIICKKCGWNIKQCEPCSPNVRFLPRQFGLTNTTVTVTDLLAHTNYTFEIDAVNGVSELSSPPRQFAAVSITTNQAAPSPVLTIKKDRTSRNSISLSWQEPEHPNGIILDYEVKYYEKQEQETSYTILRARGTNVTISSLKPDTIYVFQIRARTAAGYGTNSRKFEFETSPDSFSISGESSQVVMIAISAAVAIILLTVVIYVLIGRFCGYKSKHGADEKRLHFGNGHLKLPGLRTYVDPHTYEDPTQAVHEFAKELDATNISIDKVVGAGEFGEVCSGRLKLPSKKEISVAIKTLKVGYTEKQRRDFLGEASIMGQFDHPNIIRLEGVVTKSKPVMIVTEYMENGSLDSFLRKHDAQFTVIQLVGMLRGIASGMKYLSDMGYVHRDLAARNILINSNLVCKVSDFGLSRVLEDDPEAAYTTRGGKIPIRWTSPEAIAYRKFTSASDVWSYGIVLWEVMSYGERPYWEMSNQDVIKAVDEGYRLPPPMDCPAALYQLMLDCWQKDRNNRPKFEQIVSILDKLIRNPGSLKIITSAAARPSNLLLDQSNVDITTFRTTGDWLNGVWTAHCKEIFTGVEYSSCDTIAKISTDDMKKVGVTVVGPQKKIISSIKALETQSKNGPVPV
Serine/threonine-protein kinase OSR1 (Homo sapiens), sequence (O95747 whole entry, looked up): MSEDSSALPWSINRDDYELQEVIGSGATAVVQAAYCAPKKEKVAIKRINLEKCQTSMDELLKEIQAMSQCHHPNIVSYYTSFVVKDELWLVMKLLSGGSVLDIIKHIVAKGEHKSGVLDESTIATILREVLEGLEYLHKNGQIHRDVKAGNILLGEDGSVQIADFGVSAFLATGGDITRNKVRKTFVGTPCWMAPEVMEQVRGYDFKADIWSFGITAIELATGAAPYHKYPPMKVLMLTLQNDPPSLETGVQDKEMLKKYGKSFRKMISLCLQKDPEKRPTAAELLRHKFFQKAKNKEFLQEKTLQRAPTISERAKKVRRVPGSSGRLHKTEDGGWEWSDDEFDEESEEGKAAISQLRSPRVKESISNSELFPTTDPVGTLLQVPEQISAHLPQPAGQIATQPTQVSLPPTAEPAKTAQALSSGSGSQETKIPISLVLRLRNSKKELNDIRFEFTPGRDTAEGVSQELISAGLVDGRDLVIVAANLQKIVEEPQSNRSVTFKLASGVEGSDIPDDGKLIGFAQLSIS
Vascular endothelial growth factor receptor 3 (Homo sapiens), sequence (P35916 whole entry): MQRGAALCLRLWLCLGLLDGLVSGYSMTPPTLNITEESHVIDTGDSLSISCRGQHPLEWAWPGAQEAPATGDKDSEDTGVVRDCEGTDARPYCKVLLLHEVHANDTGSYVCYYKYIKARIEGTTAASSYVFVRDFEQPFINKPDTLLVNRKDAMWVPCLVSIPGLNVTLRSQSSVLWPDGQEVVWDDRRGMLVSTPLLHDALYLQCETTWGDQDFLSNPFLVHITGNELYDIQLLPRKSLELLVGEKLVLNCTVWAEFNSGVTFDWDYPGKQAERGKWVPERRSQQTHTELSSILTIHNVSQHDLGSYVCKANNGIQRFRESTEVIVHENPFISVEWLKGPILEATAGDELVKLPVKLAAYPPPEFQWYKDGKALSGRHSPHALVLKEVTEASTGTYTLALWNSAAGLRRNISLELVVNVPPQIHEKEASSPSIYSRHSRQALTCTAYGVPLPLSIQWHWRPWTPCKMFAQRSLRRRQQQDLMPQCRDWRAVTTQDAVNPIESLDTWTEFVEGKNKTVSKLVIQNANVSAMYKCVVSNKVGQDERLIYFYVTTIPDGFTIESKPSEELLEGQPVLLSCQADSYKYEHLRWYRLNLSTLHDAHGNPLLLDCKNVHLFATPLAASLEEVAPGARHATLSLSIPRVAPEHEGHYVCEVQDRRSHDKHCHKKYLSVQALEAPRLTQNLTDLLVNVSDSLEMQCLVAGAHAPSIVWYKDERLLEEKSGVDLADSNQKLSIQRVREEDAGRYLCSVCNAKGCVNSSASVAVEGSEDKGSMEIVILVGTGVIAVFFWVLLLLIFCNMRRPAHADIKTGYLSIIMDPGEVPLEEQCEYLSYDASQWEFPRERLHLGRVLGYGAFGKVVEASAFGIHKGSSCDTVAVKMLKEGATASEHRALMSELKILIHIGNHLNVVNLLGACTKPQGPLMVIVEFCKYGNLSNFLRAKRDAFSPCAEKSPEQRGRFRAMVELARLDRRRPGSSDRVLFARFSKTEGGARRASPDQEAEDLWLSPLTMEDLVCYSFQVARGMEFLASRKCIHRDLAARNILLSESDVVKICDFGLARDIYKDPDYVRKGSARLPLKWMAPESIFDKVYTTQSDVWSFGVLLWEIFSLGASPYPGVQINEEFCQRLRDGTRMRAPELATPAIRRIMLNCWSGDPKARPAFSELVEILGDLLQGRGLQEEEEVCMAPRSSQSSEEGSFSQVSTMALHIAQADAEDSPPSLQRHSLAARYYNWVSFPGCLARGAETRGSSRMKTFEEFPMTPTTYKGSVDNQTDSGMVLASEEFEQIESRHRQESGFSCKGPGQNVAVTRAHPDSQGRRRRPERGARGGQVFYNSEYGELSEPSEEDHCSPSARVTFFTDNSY
Phosphatidylinositol 4-kinase beta (Homo sapiens), sequence (Q9UBF8 2-816 limits assumed): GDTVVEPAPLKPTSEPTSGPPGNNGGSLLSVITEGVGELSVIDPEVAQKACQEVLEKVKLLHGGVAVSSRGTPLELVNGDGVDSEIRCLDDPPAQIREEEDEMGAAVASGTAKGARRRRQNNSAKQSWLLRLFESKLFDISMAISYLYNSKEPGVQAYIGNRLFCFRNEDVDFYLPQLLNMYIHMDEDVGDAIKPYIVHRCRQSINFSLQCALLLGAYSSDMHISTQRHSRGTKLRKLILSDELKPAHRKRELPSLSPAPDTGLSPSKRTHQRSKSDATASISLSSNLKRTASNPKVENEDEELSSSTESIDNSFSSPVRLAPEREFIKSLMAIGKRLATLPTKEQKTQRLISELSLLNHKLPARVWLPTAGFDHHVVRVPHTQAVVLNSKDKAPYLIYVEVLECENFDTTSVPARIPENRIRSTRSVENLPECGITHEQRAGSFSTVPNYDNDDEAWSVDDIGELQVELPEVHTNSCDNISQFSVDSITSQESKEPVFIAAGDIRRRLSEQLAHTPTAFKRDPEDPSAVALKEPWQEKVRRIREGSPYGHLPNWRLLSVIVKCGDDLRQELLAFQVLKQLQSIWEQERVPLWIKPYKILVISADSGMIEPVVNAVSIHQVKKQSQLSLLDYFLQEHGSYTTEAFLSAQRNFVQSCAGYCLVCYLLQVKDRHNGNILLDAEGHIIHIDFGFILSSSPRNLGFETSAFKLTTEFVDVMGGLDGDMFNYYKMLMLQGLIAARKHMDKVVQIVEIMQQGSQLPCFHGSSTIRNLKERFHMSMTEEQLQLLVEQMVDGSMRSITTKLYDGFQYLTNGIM
Ribosomal protein S6 kinase beta-2 (Homo sapiens), sequence (Q9UBS0 whole entry): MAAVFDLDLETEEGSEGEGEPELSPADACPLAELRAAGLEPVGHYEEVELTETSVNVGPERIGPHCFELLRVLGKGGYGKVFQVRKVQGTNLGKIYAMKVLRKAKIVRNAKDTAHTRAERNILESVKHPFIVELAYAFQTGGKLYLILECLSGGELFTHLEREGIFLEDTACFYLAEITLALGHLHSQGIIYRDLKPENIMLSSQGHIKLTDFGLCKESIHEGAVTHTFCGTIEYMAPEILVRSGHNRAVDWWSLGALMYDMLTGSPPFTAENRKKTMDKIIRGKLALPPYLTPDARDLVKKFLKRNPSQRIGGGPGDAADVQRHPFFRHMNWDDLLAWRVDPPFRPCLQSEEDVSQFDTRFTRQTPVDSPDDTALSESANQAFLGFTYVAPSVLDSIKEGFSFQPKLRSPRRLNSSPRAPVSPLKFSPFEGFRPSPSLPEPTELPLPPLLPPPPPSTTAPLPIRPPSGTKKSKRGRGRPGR
TGF-beta receptor type-2 (Homo sapiens), sequence (P37173 whole entry): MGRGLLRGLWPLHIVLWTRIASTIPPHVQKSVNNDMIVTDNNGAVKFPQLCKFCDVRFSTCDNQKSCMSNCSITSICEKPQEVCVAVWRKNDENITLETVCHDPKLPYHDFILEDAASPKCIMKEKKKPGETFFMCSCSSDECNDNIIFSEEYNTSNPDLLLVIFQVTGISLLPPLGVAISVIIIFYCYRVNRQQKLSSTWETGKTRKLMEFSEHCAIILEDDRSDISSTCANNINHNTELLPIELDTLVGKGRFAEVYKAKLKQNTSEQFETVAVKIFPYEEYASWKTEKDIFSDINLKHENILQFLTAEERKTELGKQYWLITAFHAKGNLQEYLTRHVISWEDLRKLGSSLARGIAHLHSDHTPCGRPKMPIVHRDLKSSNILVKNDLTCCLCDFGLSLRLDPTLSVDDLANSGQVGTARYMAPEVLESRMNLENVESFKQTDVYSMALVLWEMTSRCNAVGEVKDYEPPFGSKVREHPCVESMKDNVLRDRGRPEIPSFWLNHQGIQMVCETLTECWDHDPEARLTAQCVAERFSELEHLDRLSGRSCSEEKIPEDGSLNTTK

## CCN1CCN(Cc2ccc(NC(=O)c3ccc(C)c(Oc4ccnc5[nH]ccc45)c3)cc2C(F)(F)F)CC1
[1]
  inhibition: 82.3%
[2]
  inhibition: 3.4%
[3]
  inhibition: inactive
[4]
  inhibition: 2.8%
[5]
  inhibition: 6.6%

## CCN1CCN(Cc2ccc(NC(=O)c3ccc(C)c(/C=C/c4cnc5[nH]ccc5c4OC)c3)cc2C(F)(F)F)CC1
[6]
  inhibition: 52%
[7]
  inhibition: 9.9%
[8]
  inhibition: 26.6%
[9]
  inhibition: 18.3%
[10]
  residual activity: 26%
[11]
  residual activity: 100%
[12]
  residual activity: 100%

## CNc1cc(Oc2cc(C(=O)Nc3cc(N4CCN(C)CC4)cc(C(F)(F)F)c3)ccc2C)ncn1
[13]
  inhibition: 2.8%
[14]
  inhibition: 30.9%
